The structures appear in SMILES notation. Converted amounts (≈) assume the structure as drawn. Read-outs that look alike come from different tables or passages of the source. A value given as a limit tells only on which side of the number the result lay.

The source of these data is patent US5935998A, “Use of all allylamine derivatives such as terbinafine, in the manufacture of a medicament for the treatment of helicobacter pylori infection or associated diseases” (Novartis AG, priority 1995, dated 1999).

One data set deals with Helicobacter pylori. The data set is described as follows: MIC (minimum inhibitory concentration) determination using various clinical isolates of H.pylori. The format is cell-based. The conditions noted are these: Mueller-Hinton agar with 7% defibrinated horse blood, pH 7.2, 72 hours, 37° C., 5% CO2. How it is done: The activity of the compounds of formula I against Helicobacter pylori can be verified e.g. by determination of the MIC (minimum inhibitory concentration) in the following test method using various clinical isolates of H.pylori: Clinical isolates of H.pylori are stored at -70° C. in Brucella broth with 20% glycerol. All isolates are subcultured on fresh blood agar Blood agar base No. 2, Unipath, with 5% defibrinated horse blood) and confirmed as Helicobacter pylori by Gram shin, catalase, oxidase and rapid-urease tests. Initial incubation is carried out microaerobically in a variable-atmosphere incubator (6% O2, 10% CO2, 3% H2, 81% N2) at 37° C. Subcultures and MIC tests are carried out in humidified air with 5% CO2 at 37° C. Test compounds are incorporated into Mueller-Hinton agar (Unipath) with 7% defibrinated horse blood at pH 7.2. After growth for 72 hours on blood agar H.pylori suspensions are made in Brucella broth (Unipath) equivalent to McFarland standard No. 3. This represents 10^8 cfu/ml H.pylori. A multipoint inoculator will deliver 1 μl per spot (approximately 10^5 cfu). The type strain NCTC 11637 is used as a control in each run. […] All tests are carried out in triplicate.

A short description of a further data set: in vivo. The following applies: mouse, acute.

As for `C(=C\c1ccccc1)/CN1CCCC[C@@H]1c1cccc2ccccc12` [N-[(E)-3-phenyl-2-propenyl-2-piperidinyl], the MIC against Helicobacter pylori fell in the range of 0.06 to 4 µg/mL (≈ 0.183 to 12.2 µM).

As to `CN(C/C=C/C#CC(C)(C)C)Cc1cccc2ccccc12`, the LD50 is 790 mg/kg in “in vivo” (ip, i.p., read-out: LD50 i.p.) and above 1000 mg/kg in “in vivo” (po, p.o., read-out: LD50 p.o.).
